Reference: patent US20050095240A1, “NaCT as a target for lifespan expansion and weight reduction” (Medical College of Georgia Research, priority 2002, published 2005)

Molecular target: T1, mouse NaCT (Mus musculus, UniProt Q67BT3)
T1 sequence (Q67BT3 1-572): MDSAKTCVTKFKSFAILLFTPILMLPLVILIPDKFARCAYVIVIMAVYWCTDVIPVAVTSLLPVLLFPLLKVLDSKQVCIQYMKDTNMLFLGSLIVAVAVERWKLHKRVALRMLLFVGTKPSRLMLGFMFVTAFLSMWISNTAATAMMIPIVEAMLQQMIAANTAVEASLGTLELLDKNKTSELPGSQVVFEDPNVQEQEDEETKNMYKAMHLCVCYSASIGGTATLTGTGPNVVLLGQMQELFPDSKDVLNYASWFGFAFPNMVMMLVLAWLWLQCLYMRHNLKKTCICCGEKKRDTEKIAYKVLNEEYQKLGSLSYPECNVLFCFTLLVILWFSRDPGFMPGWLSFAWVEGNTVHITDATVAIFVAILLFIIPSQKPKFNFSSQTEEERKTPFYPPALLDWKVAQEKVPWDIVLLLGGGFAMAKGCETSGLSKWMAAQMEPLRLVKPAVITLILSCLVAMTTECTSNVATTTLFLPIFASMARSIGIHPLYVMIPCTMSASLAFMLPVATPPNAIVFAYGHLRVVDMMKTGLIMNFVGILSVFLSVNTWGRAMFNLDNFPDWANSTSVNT
Test: Mouse NaCT in X. laevis oocytes, two-microelectrode voltage clamp
Format: cell-based
Settings: 0.5 mM citrate; three oocytes; −50 mV
Method: Functional expression of mouse and rat NaCTs in Xenopus laevis oocytes. Capped cRNA from the cloned mouse NaCT cDNA was synthesized using the mMESSAGE mMACHINE kit (Ambion Inc., Austin, Tex., USA). In some experiments, rat NaCT of Example 2 was used for functional expression. […] On the following day, oocytes were injected with 50 ng cRNA. Water-injected oocytes served as controls. The oocytes were used for electrophysiological studies 4-6 days after cRNA injection. Electrophysiological studies were performed by the two-microelectrode voltage-clamp method (Hatanaka et al., J. Clin. Invest. (2001);107: 1035-1043 and Nakanishi et al., J. Physiol. (2001);532: 297-304). […] The membrane potential was clamped at −50 mV. […] The oocytes were perifused with 50 μM [^14C]-citrate or 50 μM succinate (unlabeled plus radiolabeled succinate) and inward currents were monitored over a period of 10 min. […] The area within the curve describing the relationship between the time and inward current was integrated to calculate the charge transferred into the oocyte during incubation with citrate or succinate. The values for substrate transport and charge transfer were used to determine the charge-to-substrate ratio.

Structure (SMILES): O=C(O)CC(O)(CC(=O)O)C(=O)O [Citrate]
- Citrate-induced inward current: 30±7 nA
